Values quoted from earlier work as cited in patent publication US4717569A, “Unit dosage form of sparingly soluble medicaments” (Sterling Drug Inc., priority 1984, dated 1988).

Assays:
[1] = in patients, background
pituitary gonadotrophins = conditions: in patients, background
[2] = pH 6.0-7.0, intestinal juices

solubility at intestinal pH [2] | Structure (SMILES) | oestrogenic or progestational activity [1] | effect on pituitary gonadotrophins (pituitary gonadotrophins)
 | C#C[C@]1(O)CC[C@H]2[C@@H]3CCC4=Cc5oncc5C[C@]4(C)[C@H]3CC[C@@]21C [Compound A, 17α-pregna-2,4-diene-20-yno[2,3-d]isoxazol-17-ol] | without exhibiting oestrogenic or progestational activity | inhibits the synthesis or release of pituitary gonadotrophins
insoluble | OCCN(CCO)c1nc(N2CCCCC2)c2nc(N(CCO)CCO)nc(N3CCCCC3)c2n1 [dipyridamole] |  | 
